Measured values taken from PMC4148593, “Activation of spleen cells by ArtinM may account for its immunomodulatory properties” (Cell and Tissue Research, 2014).

Molecular target: T1, rArtinM (recombinant ArtinM) (Artocarpus heterophyllus, UniProt Q2VPW4)
T1 construct: recombinant, expressed in E. coli BL21; monomer
T1 sequence (Q2VPW4 2-150): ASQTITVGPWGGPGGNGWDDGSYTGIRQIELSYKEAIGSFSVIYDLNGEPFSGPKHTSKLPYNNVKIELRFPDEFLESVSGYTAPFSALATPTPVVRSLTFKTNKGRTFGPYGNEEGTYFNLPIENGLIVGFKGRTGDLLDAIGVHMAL
Experiment: MTT assay, inhibition of lectin-induced mitochondrial activity of murine spleen cells
Assay type: cell-based
Conditions: read-out: % inhibition at 50 mM

inhibition at 50000 µM: 80%
Structure (SMILES): OC[C@H]1OC(O)[C@@H](O)[C@@H](O)[C@@H]1O (stereo partly drawn) [D-mannose]
